Where two headings read alike, the source gives them in different places.
How the values were obtained:
D2LR [1] = target: T1, D2LR (Homo sapiens, UniProt P14416); assay: biochemical
Method: (§1) The cells were harvested in PBS containing 2 mM EDTA and centrifuged at 300 g for 3 min. The resulting pellet was resuspended in ice-cold assay buffer (20 mM HEPES, 100 mM NaCl, 6 mM MgCl2, 1 mM EGTA and 1 mM EDTA pH 7.4) and the centrifugation step was repeated. The intact cell pellet was then resuspended in assay buffer and homogenized using a Polytron homogenizer. After centrifugation (1,000 g, 10 min), the pellet was discarded and the supernatant was recentrifuged at 30,000 g for 1 h at 4 °C using a Sorvall Evolution RC ultracentrifuge (Thermo Scientific). The resulting pellet was resuspended in assay buffer and stored in 250 μl aliquots at −80 °C. Membrane protein concentration was determined using the method of Bradford.
(§2) All radioligand binding experiments were conducted at 37 °C in a 1-ml reaction volume in assay buffer (20 mM HEPES, 100 mM NaCl, 6 mM MgCl2, 1 mM EGTA and 1 mM EDTA pH 7.4) containing 100 μM GppNHp and 0.1% ascorbic acid. In all cases, nonspecific binding was determined in the presence of 10 μM haloperidol. […] Filter-bound radioactivity was measured by scintillation spectrometry after the addition of 3.5 ml of Ultima Gold (PerkinElmer) using a Tri-Carb 2900TR liquid scintillation counter (PerkinElmer).
(§3) where Y denotes the percentage-specific binding, Top and Bottom denote the maximal and minimal asymptotes, respectively, IC50 denotes the X-value when the response is midway between Bottom and Top, and nH denotes the Hill slope factor. IC50 values obtained from the inhibition curves were converted to Ki values using the Cheng and Prusoff equation[61].

D2LR [2] = target: T1, D2LR; assay: xCELLigence cellular impedance (CI) assay; type: cell-based; parameters: expressed in transfected cells; details: for Emax / Emax CI: relative to the maximal response of ropinirole
Method: Changes in CI on ligand stimulation were measured using the xCELLigence system (Roche Applied Science). The baseline cell index of each well of a 96-well E-plate was measured in the presence of growth medium before cell seeding. Cells were seeded at a density of 20,000 cells per well and grown for 16–20 h followed by 4 h serum starvation. Cells were treated with the ligands and the cell index values were obtained immediately after ligand stimulation every 15 s for a total time of 90 min. The retrieved cell index values were then normalized by dividing the cell index at the time of ligand addition followed by subtraction of the vehicle control at each time point.

D2LR [3] = target: T1, D2LR; assay: [3H]spiperone kinetic (dissociation, association, competition association) binding; parameters: expressed in transfected cells; details: [3H]spiperone tracer
Method: as §1, §2
The kinetic parameters of unlabelled agonists were determined using the equations described by Motulsky and Mahan[31]. […]

D2LR [4] = target: T1, D2LR; details: 0.1 nM [3H]spiperone; 3 h at 37 °C; 100 μM GppNHp
Method: as §1, §2, §3

[5] = 5 minute timepoint, Flp-In-CHO-D2LR
[6] = 5 minute timepoint, dopamine as reference agonist

T1 sequence (P14416 whole entry): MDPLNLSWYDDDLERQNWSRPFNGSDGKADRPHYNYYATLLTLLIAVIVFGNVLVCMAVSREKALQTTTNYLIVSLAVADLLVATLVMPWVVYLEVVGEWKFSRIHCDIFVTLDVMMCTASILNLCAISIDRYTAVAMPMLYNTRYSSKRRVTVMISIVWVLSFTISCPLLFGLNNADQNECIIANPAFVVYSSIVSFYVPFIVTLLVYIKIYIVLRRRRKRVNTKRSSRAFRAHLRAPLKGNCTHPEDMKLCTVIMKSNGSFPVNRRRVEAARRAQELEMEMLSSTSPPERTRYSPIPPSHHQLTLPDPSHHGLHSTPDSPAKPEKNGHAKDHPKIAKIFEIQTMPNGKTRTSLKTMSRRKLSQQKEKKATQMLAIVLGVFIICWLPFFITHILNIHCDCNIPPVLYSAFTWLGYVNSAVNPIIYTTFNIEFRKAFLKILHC

Compound | Ki (D2LR [1]) | EC50 (D2LR [2]; 2 min) | Emax (D2LR [2]; 2 min) | EC50 (D2LR [2]; 5 min) | Emax (D2LR [2]; 5 min) | Log(τ/KA) Cellular impedance (D2LR [2]; [5]) | ΔLog(τ/KA) Cellular impedance (D2LR [2]; [6]) | EC50 (D2LR [2]; 10 min) | Emax (D2LR [2]; 10 min) | EC50 (D2LR [2]; 15 min) | Emax (D2LR [2]; 15 min) | EC50 (D2LR [2]; 30 min) | Emax (D2LR [2]; 30 min) | EC50 (D2LR [2]; 45 min) | Emax (D2LR [2]; 45 min) | EC50 (D2LR [2]; 60 min) | Emax (D2LR [2]; 60 min) | EC50 (D2LR [2]; 75 min) | Emax (D2LR [2]; 75 min) | EC50 (D2LR [2]; 90 min) | other results
O=c1[nH]c2cccc(N3CCN(Cc4cccc(-c5ccccc5)c4)CC3)c2o1 [Bifeprunox, bifeprunox] | 0.0437 nM | 16.2 nM | 61 ± 4% | 3.47 nM | 67 ± 3% | 8.30 ± 0.07 | -0.25 ± 0.08 | 1.58 nM | 57 ± 2.5% | 0.912 nM | 58 ± 2.8% | 0.55 nM | 53 ± 3.1% | 0.339 nM | 51 ± 2.3% | 0.263 nM | 49% | 0.229 nM | 46% | 0.2 nM | Emax (D2LR [2]; 90 min): 44%; koff (D2LR [3]; Flp-In-CHO-D2LR membranes, 100 μM GppNHp, 37 °C): 0.000167 s⁻¹; Kd (D2LR [3]; read-out: pKd (affinity determined from kinetic parameters) (converted)): 0.1 nM
CN1CCN(c2cccc3[nH]c(=O)oc23)CC1 [Pardoprunox, pardoprunox] | – | – | – | – | – | 9.29 ± 0.06 | 0.74 ± 0.07 | – | – | – | – | – | – | – | – | – | – | – | – | – | pKi (affinity from competition binding experiments using [3H]spiperone) (D2LR [4]): 7.63 ± 0.06; pEC50 CI (D2LR [2]; 2 min): 9.30; Emax CI (D2LR [2]; 2 min): 75 ± 3.6; pEC50 CI (D2LR [2]; 5 min): 9.41; Emax CI (D2LR [2]; 5 min): 76 ± 2.7; pEC50 CI (D2LR [2]; 10 min): 9.22; Emax CI (D2LR [2]; 10 min): 70 ± 2.2; pEC50 CI (D2LR [2]; 15 min): 9.20; Emax CI (D2LR [2]; 15 min): 67 ± 2.5; pEC50 CI (D2LR [2]; 30 min): 9.06; Emax CI (D2LR [2]; 30 min): 62 ± 2.9; pEC50 CI (D2LR [2]; 45 min): 9.02; Emax CI (D2LR [2]; 45 min): 59 ± 2.4; pEC50 CI (D2LR [2]; 60 min): 8.95; Emax CI (D2LR [2]; 60 min): 57 ± 2.2; pEC50 CI (D2LR [2]; 75 min): 8.87; Emax CI (D2LR [2]; 75 min): 54 ± 2.1; pEC50 CI (D2LR [2]; 90 min): 8.80; Emax CI (D2LR [2]; 90 min): 52 ± 2.0
CCCN(CCC)CCc1cccc2c1CC(=O)N2 [Ropinirole, ropinirole] | 2510 nM | 4.68 nM | 100% | 5.13 nM | 100% | – | – | 7.94 nM | 100% | 10.7 nM | 100% | 17 nM | 100% | 19.5 nM | 100% | 24 nM | 100% | 28.2 nM | 100% | 34.7 nM | Log(τ/KA) Cellular impedance (D2LR [2]): 8.32 ± 0.05; ΔLog(τ/KA) Cellular impedance (D2LR [2]): -0.23 ± 0.06; Emax (D2LR [2]; 90 min): 100%
CCCN1CCC[C@@H](c2cccc(O)c2)C1 [S-3PPP, (S)-(-)-3-(3-hydroxyphenyl)-N-propylpiperidine] | – | – | – | – | – | 7.34 ± 0.10 | -1.22 ± 0.11 | – | – | – | – | – | – | – | – | – | – | – | – | – | Emax CI (D2LR [2]; 2 min): 46 ± 3.7; Emax CI (D2LR [2]; 5 min): 46 ± 3.0; Emax CI (D2LR [2]; 10 min): 36 ± 2.5; Emax CI (D2LR [2]; 15 min): 32 ± 2.6; Emax CI (D2LR [2]; 30 min): 26 ± 2.5; Emax CI (D2LR [2]; 45 min): 23 ± 2.5; Emax CI (D2LR [2]; 60 min): 21 ± 2.5; Emax CI (D2LR [2]; 75 min): 19 ± 2.4; Emax CI (D2LR [2]; 90 min): 17 ± 2.3

— paper PMC4770093, “The role of kinetic context in apparent biased agonism at GPCRs” (Nature Communications, 2016)
